What was measured:
ALK-wt = molecular target: T1, ALK-wt (Homo sapiens, UniProt Q9UM73); assay: Biochemical kinase assay, ALK-wt kinase domain; conditions: apparent inhibitory constant, Morrison equation; ATP 2 mM in substrate solution; read-out: ALK-wt Ki^app
T1 construct: purchased Carna 08-518
Experimental: (§1) First, 250 nL of compound dissolved in DMSO (100-fold of the desired concentration) was dispensed into a 384-well plate. A 12.5 μL substrate solution containing ATP (2 mM) and fluorogenic phosphorylation substrate AQT0101 (26 μM for ALK and ROS1, AssayQuant) or AQT0104 (26 μM for TRKA, AssayQuant) in buffer (50 mM HEPES pH 7.5, 0.01% Brij-35, 0.5 mM EGTA, 10 mM MgCl2) was added and mixed thoroughly. Then, a 12.5 μL kinase solution containing ALK-wt (1.5 nM, Carna, 08-518), ALK ALK L1196M/G1202R (3 nM, SignalChem, A19-12NG), ROS1-wt (0.6 nM, Carna, 08-163), ROS1-G2032R (0.5 nM, SignalChem, R14-12BG), or TRKA-wt (1 nM, BPS Bio, 40280) kinase domains in buffer (50 nM HEPES pH 7.5, 0.01% Brij-35, 2% glycerol, 0.4 mg/mL BSA, 0.5 mM EGTA, and 10 mM MgCl2) was added and mixed thoroughly. The plate was sealed and read by SpectraMax Paradigm at λ=485 nm every 2 minutes for 120 minutes at 30° C. Initial rates of reaction (v) were calculated from the change in fluorescence intensity over time during the initial, linear portion of the reaction. Finally, apparent inhibitory constants (Ki^app) were determined from regression of v and I (inhibitor concentration) to Morrison Equation (E=enzyme concentration): […]

ALK L1196M/G1202R = molecular target: T2, ALK L1196M/G1202R (Homo sapiens, UniProt Q9UM73, G1202R/L1196M); assay: Biochemical kinase assay, ALK L1196M/G1202R kinase domain; conditions: apparent inhibitory constant, Morrison equation; ATP 2 mM in substrate solution; read-out: ALK-L1196M-G1202R Ki^app
T2 construct: purchased SignalChem A19-12NG
Experimental: as §1

ROS1-wt = molecular target: T3, ROS1-wt (Homo sapiens, UniProt P08922); assay: Biochemical kinase assay, ROS1-wt kinase domain; conditions: apparent inhibitory constant, Morrison equation; ATP 2 mM in substrate solution; read-out: ROS1-wt Ki^app
T3 construct: purchased Carna 08-163
Experimental: as §1, with “Then, a 12.5 μL kinase solution containing ALK-wt (1.5 nM, Carna, 08-518), ALK ALK L1196M/G1202R (3 nM, SignalChem, A19-12NG), ROS1-wt (0.6 nM, Carna, 08-163), ROS1-G2032R (0.5 nM, SignalChem, R14-12BG), or TRKA-wt (1 nM, BPS Bio, 40280) kinase domains in buffer (50 nM HEPES pH 7.5, 0.01% Brij-35, 2% glycerol, 0.4 mg/mL BSA, 0.5 mM EGTA, and 10 mM MgCl2) was added and mixed thoroughly.” left out

ROS1-G2032R = molecular target: T4, ROS1-G2032R (Homo sapiens, UniProt P08922, G2032R); assay: Biochemical kinase assay, ROS1-G2032R kinase domain; conditions: apparent inhibitory constant, Morrison equation; ATP 2 mM in substrate solution; read-out: ROS1-G2032R Ki^app
T4 construct: purchased SignalChem R14-12BG
Experimental: as §1, with “Then, a 12.5 μL kinase solution containing ALK-wt (1.5 nM, Carna, 08-518), ALK ALK L1196M/G1202R (3 nM, SignalChem, A19-12NG), ROS1-wt (0.6 nM, Carna, 08-163), ROS1-G2032R (0.5 nM, SignalChem, R14-12BG), or TRKA-wt (1 nM, BPS Bio, 40280) kinase domains in buffer (50 nM HEPES pH 7.5, 0.01% Brij-35, 2% glycerol, 0.4 mg/mL BSA, 0.5 mM EGTA, and 10 mM MgCl2) was added and mixed thoroughly.” left out

TRKA-wt = molecular target: T5, TRKA-wt (Homo sapiens, UniProt P04629); assay: Biochemical kinase assay, TRKA-wt kinase domain; conditions: apparent inhibitory constant, Morrison equation; ATP 2 mM in substrate solution; read-out: TRKA-wt Ki^app
T5 construct: or TRKA-wt (1 nM, BPS Bio, 40280) kinase domains in buffer; purchased BPS Bio 40280
Experimental: as §1

[1] = molecular target: T6, Ba/F3 cells CD74-ROS1 wild-type (wt) (Homo sapiens, UniProt P08922); assay: Ba/F3 cell proliferation assay, CD74-ROS1 wild-type; format: cell-based; conditions: 72 hours, CellTiter-Glo
T6 construct: fusion of the C-terminus of ROS1 with the N-terminus of various partner proteins; host or cells: Ba/F3 (RIKEN), retroviral pMSCV-puro; the other entry of the earlier key: CD74 (P04233, HLA class II histocompatibility antigen gamma chain)
In short: (§2)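 IL-3-independent Ba/F3 CD74-ROS1 lines, puromycin-selected monoclones; 1,000 cells/well, plated 1 d before dosing; 3-fold serial dilutions, 72 h; CellTiter-Glo luminescence; IC50 by 4-parameter logistic regression.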

[2] = molecular target: T7, Ba/F3 cells CD74-ROS1 G2032R (Homo sapiens, UniProt P08922, G2032R); assay: Ba/F3 cell proliferation assay, CD74-ROS1 G2032R; format: cell-based; conditions: 72 hours, CellTiter-Glo
T7 construct: fusion of the C-terminus of ROS1 with the N-terminus of various partner proteins; host or cells: Ba/F3 (RIKEN), retroviral pMSCV-puro; the other entry of the earlier key: CD74 (P04233, HLA class II histocompatibility antigen gamma chain)
In short: as §2

[3] = molecular target: T8, Ba/F3 cells EML4-ALK wt (variant 1) (Homo sapiens, UniProt Q9UM73); assay: Ba/F3 cell proliferation assay, EML4-ALK wt (variant 1); format: cell-based; conditions: 72 hours, CellTiter-Glo
T8 construct: echinoderm microtubule-associated protein-like 4 (EML4) gene and the ALK tyrosine kinase domain; host or cells: Ba/F3 (RIKEN), retroviral pMSCV-puro; the other entry of the earlier key: EML4 (Q9HC35, Echinoderm microtubule-associated protein-like 4)
In short: (§3)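 Ba/F3 lines stably expressing the fusion (retroviral pMSCV-puro, selected by IL-3 withdrawal plus puromycin 0.8 μg/mL, monoclonal) were seeded at 1,000 cells/well, dosed next day with 3-fold compound dilutions, and incubated 72 hours. CellTiter-Glo luminescence gave percent inhibition; IC50 by four-parameter logistic fit.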

[4] = molecular target: T9, Ba/F3 cells EML4-ALK L1196M/G1202R (variant 1) (Homo sapiens, UniProt Q9UM73, G1202R/L1196M); assay: Ba/F3 cell proliferation assay, EML4-ALK L1196M/G1202R (variant 1); format: cell-based; conditions: 72 hours, CellTiter-Glo
T9 construct: echinoderm microtubule-associated protein-like 4 (EML4) gene and the ALK tyrosine kinase domain; host or cells: Ba/F3 (RIKEN), retroviral pMSCV-puro; the other entry of the earlier key: EML4 (Q9HC35, Echinoderm microtubule-associated protein-like 4)
In short: as §3

Ba/F3 cells TPM3-TRKA = molecular target: T10, Ba/F3 cells TPM3-TRKA (Homo sapiens, UniProt P04629); assay: Ba/F3 cell proliferation assay, TPM3-TRKA; format: cell-based; conditions: 72 hours, CellTiter-Glo, read-out: TPM3-NTRK1-wt IC50
T10 construct: host or cells: Ba/F3 (RIKEN), retroviral pMSCV-puro; the other entry of the earlier key: TPM3 (P06753, Tropomyosin alpha-3 chain)
In short: as §3

[5] = test system: TPM3-NTRK1-wt IC50 / primary target IC50 (e.g. CD74-ROS1-wt); assay: TRKA selectivity in Ba/F3 cells (TRKA potency divided by primary target potency); format: cell-based; conditions: for TPM3-NTRK1-wt/CD74-ROS1-G2032R selectivity ratio: TRKA potency / CD74-ROS1-G2032R potency; for TPM3-NTRK1-wt/CD74-ROS1-wt selectivity ratio: TRKA potency / CD74-ROS1-wt potency; for TPM3-NTRK1-wt/EML4-ALK-L1196M-G1202R selectivity ratio: TRKA potency / EML4-ALK-L1196M-G1202R potency; for TPM3-NTRK1-wt/EML4-ALK-wt selectivity ratio: TRKA potency / EML4-ALK-wt potency
Experimental: TRKA selectivity was calculated by dividing a compound's TRKA potency by its primary target potency (e.g. TPM3-NTRK1-wt IC50/CD74-ROS1-wt IC50). Compound selectivity can be interpreted by binning ratio values: bin A for very high selectivity, ratio >30-fold; bin B for high selectivity, ratio >10-fold; bin C for moderate selectivity, ratio ≥1; and bin D for low selectivity, ratio <1. […] (nd=not determined).

T4 sequence (P08922 1945-2222 G2032R limits assumed): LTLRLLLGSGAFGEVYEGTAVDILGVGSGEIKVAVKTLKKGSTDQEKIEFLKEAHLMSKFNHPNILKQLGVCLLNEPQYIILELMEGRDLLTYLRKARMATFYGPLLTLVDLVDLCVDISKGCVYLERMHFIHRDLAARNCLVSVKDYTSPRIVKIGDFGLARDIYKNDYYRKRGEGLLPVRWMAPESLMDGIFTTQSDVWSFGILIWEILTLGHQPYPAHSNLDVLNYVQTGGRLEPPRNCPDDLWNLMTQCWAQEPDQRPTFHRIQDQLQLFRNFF
T3 sequence (P08922 1945-2222 limits assumed): as the sequence (P08922 1945-2222 G2032R limits assumed) above, with R88G counted along it
T5 sequence (P04629 510-781 limits assumed): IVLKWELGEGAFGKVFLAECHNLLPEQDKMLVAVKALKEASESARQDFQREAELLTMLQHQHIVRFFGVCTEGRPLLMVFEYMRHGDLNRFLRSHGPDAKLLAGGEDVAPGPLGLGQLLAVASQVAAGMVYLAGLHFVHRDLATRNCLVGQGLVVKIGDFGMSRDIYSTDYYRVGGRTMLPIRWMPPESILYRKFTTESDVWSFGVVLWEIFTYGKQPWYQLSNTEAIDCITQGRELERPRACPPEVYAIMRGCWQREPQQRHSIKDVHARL
T1 sequence (Q9UM73 1116-1392 limits assumed): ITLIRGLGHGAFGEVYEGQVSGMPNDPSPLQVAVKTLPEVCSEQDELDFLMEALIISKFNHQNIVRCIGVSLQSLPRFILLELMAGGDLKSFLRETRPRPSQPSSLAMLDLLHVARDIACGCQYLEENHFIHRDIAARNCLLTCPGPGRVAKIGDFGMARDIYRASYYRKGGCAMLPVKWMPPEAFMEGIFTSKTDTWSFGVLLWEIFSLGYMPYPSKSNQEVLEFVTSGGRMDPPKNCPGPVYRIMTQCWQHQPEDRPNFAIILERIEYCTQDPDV
T8 sequence (Q9UM73 with tags, fused parts or gaps): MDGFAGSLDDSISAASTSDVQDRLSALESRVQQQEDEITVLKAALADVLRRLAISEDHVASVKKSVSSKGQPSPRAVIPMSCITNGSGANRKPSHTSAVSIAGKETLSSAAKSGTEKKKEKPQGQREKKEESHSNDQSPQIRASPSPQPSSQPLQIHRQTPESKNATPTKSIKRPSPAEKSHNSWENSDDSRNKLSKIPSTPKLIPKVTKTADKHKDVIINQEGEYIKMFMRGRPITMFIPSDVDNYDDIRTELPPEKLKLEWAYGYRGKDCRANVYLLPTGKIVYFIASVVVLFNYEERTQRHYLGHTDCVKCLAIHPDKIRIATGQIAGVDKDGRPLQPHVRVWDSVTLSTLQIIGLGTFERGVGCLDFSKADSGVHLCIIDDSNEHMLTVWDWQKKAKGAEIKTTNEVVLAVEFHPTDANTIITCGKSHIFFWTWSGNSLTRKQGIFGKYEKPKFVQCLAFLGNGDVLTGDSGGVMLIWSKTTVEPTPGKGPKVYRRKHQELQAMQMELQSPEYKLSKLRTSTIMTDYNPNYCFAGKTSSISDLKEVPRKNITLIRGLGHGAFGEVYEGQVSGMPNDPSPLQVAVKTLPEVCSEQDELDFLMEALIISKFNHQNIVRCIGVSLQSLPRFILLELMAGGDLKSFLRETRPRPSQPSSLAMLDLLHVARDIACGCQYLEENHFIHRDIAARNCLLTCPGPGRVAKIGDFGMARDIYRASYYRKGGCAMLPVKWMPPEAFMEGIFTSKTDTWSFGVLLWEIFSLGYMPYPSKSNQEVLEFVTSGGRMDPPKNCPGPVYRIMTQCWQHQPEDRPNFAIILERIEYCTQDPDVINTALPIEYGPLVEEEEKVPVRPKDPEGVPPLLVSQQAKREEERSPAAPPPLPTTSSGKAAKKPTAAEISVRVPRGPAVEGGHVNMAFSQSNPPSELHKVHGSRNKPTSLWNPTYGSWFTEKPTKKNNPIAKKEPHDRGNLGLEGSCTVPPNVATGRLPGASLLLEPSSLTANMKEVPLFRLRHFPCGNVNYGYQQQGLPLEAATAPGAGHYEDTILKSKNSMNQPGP
T2 sequence (Q9UM73 1116-1392 L1196M/G1202R limits assumed): as the sequence (Q9UM73 1116-1392 limits assumed) above, with L81M, G87R counted along it
T9 sequence (Q9UM73 with tags, fused parts or gaps L1196M/G1202R): as the sequence (Q9UM73 with tags, fused parts or gaps) above, with L635M, G641R counted along it
T6 sequence (P08922 1883-2347 limits assumed): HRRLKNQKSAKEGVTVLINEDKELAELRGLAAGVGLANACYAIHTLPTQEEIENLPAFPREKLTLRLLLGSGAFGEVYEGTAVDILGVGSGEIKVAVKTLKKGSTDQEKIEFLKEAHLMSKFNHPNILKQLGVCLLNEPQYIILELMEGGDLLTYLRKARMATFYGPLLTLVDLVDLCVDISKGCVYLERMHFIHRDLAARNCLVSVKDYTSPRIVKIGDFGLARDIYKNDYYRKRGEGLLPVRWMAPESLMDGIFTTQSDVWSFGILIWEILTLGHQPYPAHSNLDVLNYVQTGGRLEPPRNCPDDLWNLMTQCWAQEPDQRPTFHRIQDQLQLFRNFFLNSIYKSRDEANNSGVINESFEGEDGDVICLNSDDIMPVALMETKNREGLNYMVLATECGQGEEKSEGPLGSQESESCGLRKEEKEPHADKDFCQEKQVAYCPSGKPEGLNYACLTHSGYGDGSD
T10 sequence (P04629 510-796 limits assumed): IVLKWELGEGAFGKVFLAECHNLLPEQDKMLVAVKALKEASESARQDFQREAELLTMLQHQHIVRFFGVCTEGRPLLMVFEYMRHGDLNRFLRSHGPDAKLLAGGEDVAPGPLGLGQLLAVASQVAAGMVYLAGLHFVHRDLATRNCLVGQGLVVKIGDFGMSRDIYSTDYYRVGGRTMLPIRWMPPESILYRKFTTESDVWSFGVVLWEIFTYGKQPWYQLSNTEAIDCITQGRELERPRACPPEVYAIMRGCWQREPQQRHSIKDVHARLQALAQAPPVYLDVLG
T7 sequence (P08922 1883-2347 G2032R limits assumed): as the sequence (P08922 1883-2347 limits assumed) above, with G150R counted along it

SMILES	Ki (ALK-wt)	Ki (ALK L1196M/G1202R)	Ki (ROS1-wt)	Ki (ROS1-G2032R)	Ki (TRKA-wt)	IC50 [1]	IC50 [2]	IC50 [3]	IC50 [4]	IC50 (Ba/F3 cells TPM3-TRKA)	TPM3-NTRK1-wt/CD74-ROS1-G2032R selectivity ratio [5]	TPM3-NTRK1-wt/CD74-ROS1-wt selectivity ratio [5]	TPM3-NTRK1-wt/EML4-ALK-L1196M-G1202R selectivity ratio [5]	TPM3-NTRK1-wt/EML4-ALK-wt selectivity ratio [5]
C[C@H]1Oc2cc(cnc2N)-c2c(c(Cl)nn2CC(F)F)Cc2nn(C)nc2-c2ccc(F)cc21 [Example 60, (19R)-5-chloro-3-(2,2difluoroethyl)-16-fluoro-10,19-dimethyl-20-oxa-3,4,9,10,11,23-hexaazapentacyclo[19.3.1.0^2,^6.0^8,^12.0^13,^18]pentacosa-1(24),2(6),4,8,11,13,15,17,21(25),22-decaen-22-amine]	50 to 500 nM	50 to 500 nM	< 50 nM	50 to 500 nM	> 500 nM	0.1 to 50 nM	0.1 to 50 nM	50 to 500 nM	> 500 nM	> 500 nM	A (bin A for very high selectivity, ratio >30-fold)	A (bin A for very high selectivity, ratio >30-fold)	B (bin B for high selectivity, ratio >10-fold)	A (bin A for very high selectivity, ratio >30-fold)
CCc1noc2c1-c1cnc(N)c(c1)O[C@H](C)c1cc(F)ccc1-c1ccnn1C2 [Example 21, (19R)-3-ethyl-16-fluoro-19-methyl-5,20-dioxa-4,8,9,23-tetraazapentacyclo[19.3.1.0^2,^6.0^8,^12.0^13,^18]pentacosa-1(24),2(6),3,9,11,13,15,17,21 (25),22-decaen-22-amine]	< 50 nM	< 50 nM	< 50 nM	< 50 nM	50 to 500 nM	0.1 to 50 nM	0.1 to 50 nM	0.1 to 50 nM	50 to 500 nM	50 to 500 nM	B (bin B for high selectivity, ratio >10-fold)	A (bin A for very high selectivity, ratio >30-fold)	C (bin C for moderate selectivity, ratio ≥1)	A (bin A for very high selectivity, ratio >30-fold)
C[C@H]1Oc2cc(cnc2N)-c2c(C#N)ncn2Cc2ncccc2-c2ccc(F)cc21 [Example 19, (20R)-23-amino-17-fluoro-20-methyl-21-oxa-4,6,9,24-tetraazapentacyclo[20.3.1.0^3,^6.0^8,^13.0^14,^19]hexacosa-1(25),2,4,8(13),9,11,14,16,18,22(26),23-undecaene-3-carbonitrile]	< 50 nM	< 50 nM	< 50 nM	< 50 nM	> 500 nM	0.1 to 50 nM	0.1 to 50 nM	0.1 to 50 nM	0.1 to 50 nM	> 500 nM	A (bin A for very high selectivity, ratio >30-fold)	A (bin A for very high selectivity, ratio >30-fold)	A (bin A for very high selectivity, ratio >30-fold)	A (bin A for very high selectivity, ratio >30-fold)
